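Cells were grown in 96-well plates and exposed to each compound for 48 hours at five concentrations; endpoints were interpolated linearly between bracketing concentrations, or set to the highest concentration if not reached. GI50: concentration for 50% inhibition of growth.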 The source made the active and inactive calls. Cut-off read from the data, not from the text of the source: active = GI50 up to about 1.1 µM and inactive = higher.
Legend:
Experiment in all cases: growth of human tumour cells (NCI), 48 h
786-0 = system: 786-0
A549 = system: A549
ACHN = system: ACHN
CCRF-CEM = system: CCRF-CEM
COLO 205 = system: COLO 205
DLD-1 = system: DLD-1
DMS-273 = system: DMS-273
EKVX = system: EKVX
HCC 2998 = system: HCC 2998
HCT-116 = system: HCT-116
HCT-15 = system: HCT-15
HL-60 = system: HL-60
HOP-18 = system: HOP-18
HOP-62 = system: HOP-62
HOP-92 = system: HOP-92
HT-29 = system: HT-29
KM-20L2 = system: KM-20L2
LOX IMVI = system: LOX IMVI
LXFL 529 = system: LXFL 529
M19-MEL = system: M19-MEL
MOLT-4 = system: MOLT-4
Malme-3M = system: Malme-3M
NCI-H226 = system: NCI-H226
NCI-H23 = system: NCI-H23
NCI-H460 = system: NCI-H460
OVCAR-3 = system: OVCAR-3
OVCAR-5 = system: OVCAR-5
OVCAR-8 = system: OVCAR-8
RPMI-8226 = system: RPMI-8226
RXF 393 = system: RXF 393
RXF 631 = system: RXF 631
SF-268 = system: SF-268
SF-295 = system: SF-295
SF-539 = system: SF-539
SK-MEL-28 = system: SK-MEL-28
SK-MEL-2 = system: SK-MEL-2
SK-OV-3 = system: SK-OV-3
SN12C = system: SN12C
SNB-19 = system: SNB-19
SNB-75 = system: SNB-75
SNB-78 = system: SNB-78
SR = system: SR
SW-620 = system: SW-620
TK-10 = system: TK-10
U-251 = system: U-251
UACC-257 = system: UACC-257
UACC-62 = system: UACC-62
UO-31 = system: UO-31
XF498 = system: XF498
A498 = system: A498
DMS-114 = system: DMS-114
IGROV-1 = system: IGROV-1
K562 = system: K562
KM12 = system: KM12
M14 = system: M14
OVCAR-4 = system: OVCAR-4
BT-549 = system: BT-549
CAKI-1 = system: CAKI-1
DU-145 = system: DU-145
Hs-578T = system: Hs-578T
MCF7 = system: MCF7
MDA-MB-231 = system: MDA-MB-231
MDA-N = system: MDA-N
NCI-H522 = system: NCI-H522
PC-3 = system: PC-3
SK-MEL-5 = system: SK-MEL-5
T47D = system: T47D

Cc1nc2ccc(C(F)(F)F)cc2nc1Nc1ccc(Cl)c(Cl)c1
GI50 (786-0): 4.69 µM (inactive)
GI50 (A549): 7.14 µM (inactive)
GI50 (ACHN): 11.3 µM (inactive)
GI50 (CCRF-CEM): 6.44 µM (inactive)
GI50 (COLO 205): 3.94 µM (inactive)
GI50 (DLD-1): 9.42 µM (inactive)
GI50 (DMS-273): 4.81 µM (inactive)
GI50 (EKVX): > 10 µM (inactive)
GI50 (HCC 2998): 3.72 µM (inactive)
GI50 (HCT-116): 10.5 µM (inactive)
GI50 (HCT-15): 6.12 µM
GI50 (HL-60): 5.62 µM (inactive)
GI50 (HOP-18): 15.3 µM (inactive)
GI50 (HOP-62): 16 µM (inactive)
GI50 (HOP-92): 3.27 µM (inactive)
GI50 (HT-29): 4.68 µM (inactive)
GI50 (KM-20L2): 4.11 µM (inactive)
GI50 (LOX IMVI): 3.03 µM (inactive)
GI50 (LXFL 529): 7.87 µM (inactive)
GI50 (M19-MEL): 12.1 µM (inactive)
GI50 (MOLT-4): 7 µM (inactive)
GI50 (Malme-3M): 19.9 µM (inactive)
GI50 (NCI-H226): 16.1 µM (inactive)
GI50 (NCI-H23): 12.6 µM (inactive)
GI50 (NCI-H460): 2.65 µM (inactive)
GI50 (OVCAR-3): 12.8 µM (inactive)
GI50 (OVCAR-5): 15.4 µM (inactive)
GI50 (OVCAR-8): 12.8 µM (inactive)
GI50 (RPMI-8226): 8.17 µM (inactive)
GI50 (RXF 393): 6.49 µM (inactive)
GI50 (RXF 631): 7.41 µM (inactive)
GI50 (SF-268): 13.8 µM (inactive)
GI50 (SF-295): 3.4 µM (inactive)
GI50 (SF-539): 14.1 µM (inactive)
GI50 (SK-MEL-28): 12.2 µM (inactive)
GI50 (SK-MEL-2): 14.3 µM (inactive)
GI50 (SK-OV-3): 18.9 µM (inactive)
GI50 (SN12C): 11.9 µM (inactive)
GI50 (SNB-19): 14.1 µM (inactive)
GI50 (SNB-75): > 10 µM (inactive)
GI50 (SNB-78): 14.7 µM (inactive)
GI50 (SR): 8.73 µM (inactive)
GI50 (SW-620): 12.7 µM (inactive)
GI50 (TK-10): 17.6 µM (inactive)
GI50 (U-251): 6.46 µM (inactive)
GI50 (UACC-257): 12.8 µM (inactive)
GI50 (UACC-62): 12.9 µM (inactive)
GI50 (UO-31): 12.2 µM (inactive)
GI50 (XF498): 10 µM (inactive)

CCN(N=O)C1C2(CCCC2)NC(=O)C12CCCC2 (stereo not drawn)
GI50 (786-0): > 100 µM (inactive)
GI50 (A498): > 100 µM (inactive)
GI50 (A549): > 100 µM (inactive)
GI50 (ACHN): > 100 µM (inactive)
GI50 (CCRF-CEM): > 100 µM (inactive)
GI50 (DLD-1): > 100 µM (inactive)
GI50 (DMS-114): > 100 µM (inactive)
GI50 (EKVX): > 100 µM (inactive)
GI50 (HCC 2998): > 100 µM (inactive)
GI50 (HCT-116): > 100 µM (inactive)
GI50 (HCT-15): > 100 µM
GI50 (HL-60): > 100 µM (inactive)
GI50 (HOP-18): > 100 µM (inactive)
GI50 (HOP-62): > 100 µM (inactive)
GI50 (HT-29): > 100 µM (inactive)
GI50 (IGROV-1): > 100 µM (inactive)
GI50 (K562): > 100 µM (inactive)
GI50 (KM-20L2): > 100 µM (inactive)
GI50 (KM12): > 100 µM (inactive)
GI50 (LOX IMVI): > 100 µM (inactive)
GI50 (LXFL 529): > 100 µM (inactive)
GI50 (M14): > 100 µM (inactive)
GI50 (M19-MEL): > 100 µM (inactive)
GI50 (MOLT-4): > 100 µM (inactive)
GI50 (Malme-3M): > 100 µM (inactive)
GI50 (NCI-H226): > 100 µM (inactive)
GI50 (NCI-H23): > 100 µM (inactive)
GI50 (NCI-H460): > 100 µM (inactive)
GI50 (OVCAR-3): > 100 µM (inactive)
GI50 (OVCAR-4): > 100 µM (inactive)
GI50 (OVCAR-5): > 100 µM (inactive)
GI50 (OVCAR-8): > 100 µM (inactive)
GI50 (RPMI-8226): > 100 µM (inactive)
GI50 (RXF 393): > 100 µM (inactive)
GI50 (RXF 631): > 100 µM (inactive)
GI50 (SF-268): > 100 µM (inactive)
GI50 (SF-295): > 100 µM (inactive)
GI50 (SF-539): > 100 µM (inactive)
GI50 (SK-MEL-28): > 100 µM (inactive)
GI50 (SK-OV-3): > 100 µM (inactive)
GI50 (SN12C): > 100 µM (inactive)
GI50 (SNB-19): > 100 µM (inactive)
GI50 (SNB-75): > 100 µM (inactive)
GI50 (SNB-78): > 100 µM (inactive)
GI50 (SR): > 100 µM (inactive)
GI50 (SW-620): > 100 µM (inactive)
GI50 (TK-10): > 100 µM (inactive)
GI50 (U-251): > 100 µM (inactive)
GI50 (UACC-257): > 100 µM (inactive)
GI50 (UACC-62): > 100 µM (inactive)
GI50 (UO-31): > 100 µM (inactive)
GI50 (XF498): > 100 µM (inactive)

O=C1c2ccccc2C(=O)c2sc(Nc3ccc([N+](=O)[O-])cc3)nc21
GI50 (786-0): 5.27 µM (inactive)
GI50 (A498): 17.2 µM (inactive)
GI50 (A549): 17.5 µM (inactive)
GI50 (ACHN): 2.99 µM (inactive)
GI50 (BT-549): 14.3 µM (inactive)
GI50 (CAKI-1): 4.25 µM (inactive)
GI50 (CCRF-CEM): 1.97 µM (inactive)
GI50 (COLO 205): 8.59 µM (inactive)
GI50 (DLD-1): 4.19 µM (inactive)
GI50 (DMS-114): 2.49 µM (inactive)
GI50 (DMS-273): 7.69 µM (inactive)
GI50 (DU-145): 19.2 µM (inactive)
GI50 (EKVX): 14.7 µM (inactive)
GI50 (HCC 2998): 16 µM (inactive)
GI50 (HCT-116): 6.62 µM (inactive)
GI50 (HCT-15): 5.32 µM
GI50 (HL-60): 0.984 µM (active)
GI50 (HOP-18): 4.33 µM (inactive)
GI50 (HOP-62): 13 µM (inactive)
GI50 (HOP-92): 13.8 µM (inactive)
GI50 (HT-29): 23.8 µM (inactive)
GI50 (Hs-578T): 1.32 µM (inactive)
GI50 (IGROV-1): 12.5 µM (inactive)
GI50 (K562): 2.17 µM (inactive)
GI50 (KM-20L2): 22.7 µM (inactive)
GI50 (KM12): 9.08 µM (inactive)
GI50 (LOX IMVI): 2.03 µM (inactive)
GI50 (LXFL 529): 1.66 µM (inactive)
GI50 (M14): 2.54 µM (inactive)
GI50 (M19-MEL): 1.55 µM (inactive)
GI50 (MCF7): 9.35 µM (inactive)
GI50 (MDA-MB-231): 2.3 µM (inactive)
GI50 (MDA-N): 2 µM (inactive)
GI50 (MOLT-4): 1.92 µM (inactive)
GI50 (Malme-3M): 6.25 µM (inactive)
GI50 (NCI-H226): 17.2 µM (inactive)
GI50 (NCI-H23): 2.67 µM (inactive)
GI50 (NCI-H460): 10 µM (inactive)
GI50 (NCI-H522): 2.55 µM (inactive)
GI50 (OVCAR-3): 2.24 µM (inactive)
GI50 (OVCAR-4): 4.4 µM (inactive)
GI50 (OVCAR-5): 13.7 µM (inactive)
GI50 (OVCAR-8): 4.66 µM (inactive)
GI50 (PC-3): 7.38 µM (inactive)
GI50 (RPMI-8226): 2.35 µM (inactive)
GI50 (RXF 393): 5.16 µM (inactive)
GI50 (RXF 631): 19.5 µM (inactive)
GI50 (SF-268): 6.93 µM (inactive)
GI50 (SF-295): 11.8 µM (inactive)
GI50 (SF-539): 7.91 µM (inactive)
GI50 (SK-MEL-28): 10.6 µM (inactive)
GI50 (SK-MEL-2): 13.6 µM (inactive)
GI50 (SK-MEL-5): 2.39 µM (inactive)
GI50 (SK-OV-3): 21.7 µM (inactive)
GI50 (SN12C): 3.19 µM (inactive)
GI50 (SNB-19): 10.3 µM (inactive)
GI50 (SNB-75): 7.89 µM (inactive)
GI50 (SNB-78): 10 µM (inactive)
GI50 (SR): 2.63 µM (inactive)
GI50 (SW-620): 4 µM (inactive)
GI50 (T47D): 2.18 µM (inactive)
GI50 (TK-10): 12.2 µM (inactive)
GI50 (U-251): 3.85 µM (inactive)
GI50 (UACC-257): 4.9 µM (inactive)
GI50 (UACC-62): 3.08 µM (inactive)
GI50 (UO-31): 3.87 µM (inactive)
GI50 (XF498): 2.17 µM (inactive)

Source: ChEMBL document CHEMBL1201862, “PubChem BioAssay data set” (2004)
